Data taken from US7446102B2, “Antibacterial amide macrocycles IV” (priority 2004, dated 2008).
≈ marks a conversion by molar mass, not a printed value. Counter-ions that a name gives are not always drawn. Like-named read-outs stand apart in the source and are kept apart here.

What was measured:
E. faecium L4001 = assay: Determination of the minimum inhibitory concentration (MIC), E. faecium L4001; format: cell-based; conditions: Enterococcus faecium
Protocol: (§1) Determination of the Minimum Inhibitory Concentration (MIC)
(§2) The minimum inhibitory concentration (MIC) is the minimum concentration of an antibiotic with which the growth of a test microbe is inhibited over 18-24 h. The inhibitor concentration can in these cases be determined by standard microbiological methods (see, for example, The National Committee for Clinical Laboratory Standards. Methods for dilution antimicrobial susceptibility tests for bacteria that grow aerobically; approved standard-fifth edition. NCCLS document M7-A5 [ISBN 1-56238-394-9]. NCCLS, 940 West Valley Road, Suite 1400, Wayne, Pa. 19087-1898 USA, 2000). The MIC of the compounds of the invention is determined in the liquid dilution test on the 96-well microtitre plate scale. The bacterial microbes are cultivated in a minimal medium (18.5 mM Na2HPO4, 5.7 mM KH2PO4, 9.3 mM NH4Cl, 2.8 mM MgSO4, 17.1 mM NaCl, 0.033 μg/ml thiamine hydrochloride, 1.2 μg/ml nicotinic acid, 0.003 μg/ml biotin, 1% glucose, 25 μg/ml of each proteinogenic amino acid with the exception of phenylalanine; [H.-P. Kroll; unpublished]) with the addition of 0.4% BH broth (test medium). In the case of Enterococcus facium L4001, heat-inactivated fetal calf serum (FCS; GibcoBRL, Germany) is added to the test medium in a final concentration of 10%. Overnight cultures of the test microbes are diluted to an OD578 of 0.001 (to 0.01 in the case of enterococci) in fresh test medium, and incubated 1:1 with dilutions of the test substances (1:2 dilution steps) in test medium (200 μl final volume). The cultures are incubated at 37° C. for 18-24 hours; enterococci in the presence of 5% CO2.
(§3) The lowest substance concentration in each case at which no visible bacterial growth occurred any more is defined as the MIC.
(§4) Alternative Method for Determining the Minimum Inhibitory Concentration (MIC)
(§5) The minimum inhibitory concentration (MIC) is the minimum concentration of an antibiotic with which the growth of a test microbe is inhibited over 18-24 h. The inhibitor concentration can in these cases be determined by standard microbiological methods with modified medium in an agar dilution test (see, for example, The National Committee for Clinical Laboratory Standards. Methods for dilution antimicrobial susceptibility tests for bacteria that grow aerobically; approved standard-fifth edition. NCCLS document M7-A5 [ISBN 1-56238-394-9]. NCCLS, 940 West Valley Road, Suite 1400, Wayne, Pa. 19087-1898 USA, 2000). The bacterial microbes are cultivated on 1.5% agar plates which contain 20% defibrinated horse blood. The test microbes, which are incubated overnight on Columbia blood agar plates (Becton-Dickinson), are diluted in PBS, adjusted to a microbe count of about […] and placed dropwise (1-3 μl) on test plates. The test substances comprise different dilutions of the test substances (1:2 dilution steps). The cultures are incubated at 37° C. in the presence of 5% CO2 for 18-24 hours.
(§6) The lowest substance concentration in each case at which no visible bacterial growth occurred any more is defined as the MIC and is reported in μg/ml.

S. aureus 133 [1] = assay: Determination of the minimum inhibitory concentration (MIC), S. aureus 133; format: cell-based
Protocol: as §1, §2, §3, §4, §5, §6

S. aureus T17 = assay: Determination of the minimum inhibitory concentration (MIC), biphenomycin-resistant S. aureus T17; format: cell-based; conditions: Staphylococcus aureus, biphenomycin-resistant strain, no visible bacterial growth, 18-24 h, 37° C., read-out: MIC S. aureus T17
Protocol: as §1, §2, §3, §4, §5, §6
The S. aureus strain T17 is isolated in vivo. CFW1 mice are infected intraperitoneally with 4×10^7 S. aureus 133 cells per mouse. 0.5 h after the infection, the animals are treated intravenously with 50 mg/kg biphenomycin B. The kidneys are removed from the surviving animals on day 3 after the infection. After homogenization of the organs, the homogenates are plated out as described for RN4220Bi^R on antibiotics-free and antibiotics-containing agar plates and incubated at 37° C. overnight. […] About 20 of these colonies are tested for the biphenomycin B MIC, and a colony with an MIC of >50 μM is selected for further cultivation, and the strain is referred to as T17.

[2] = target: S. aureus 133 translation; assay: S. aureus in vitro transcription-translation assay (firefly luciferase, S30 extract); format: biochemical; conditions: 50% inhibition of the translation of firefly luciferase
Description: In Vitro Transcription-Translation with S. aureus Extracts
Construction of an S. aureus Luciferase Reporter Plasmid
For the construction of a reporter plasmid which can be used in an in vitro transcription-translation assay from S. aureus the plasmid pBESTluc (Promega Corporation, USA) is used. The E. coli tac promoter present in this plasmid in front of the firefly luciferase is replaced by the capA1 promoter with appropriate Shine-Dalgarno sequence from S. aureus. The primers CAPFor 5′-[…] […] […]-3′ and CAPRev 5′-[…]-3′ are used for this. The primer CAPFor contains the capA1 promoter, the ribosome binding site and the 5′ region of the luciferase gene. After PCR using pBESTluc as template it is possible to isolate a PCR product which contains the firefly luciferase gene with the fused capA1 promoter. This is, after restriction with ClaI and HindIII, ligated into the vector pBESTluc which has likewise been digested with ClaI and HindIII. The resulting plasmid p1a is able to replicate in E. coli and be used as template in the S. aureus in vitro transcription-translation assay.
Preparation of S30 Extracts from S. aureus
Six liters of BHI medium are inoculated with a 250 ml overnight culture of an S. aureus strain and allowed to grow at 37° C. until the OD600 nm is 2-4. The cells are harvested by centrifugation and washed in 500 ml of cold buffer A (10 mM Tris acetate, pH 8.0, 14 mM magnesium acetate, 1 mM DTT, 1 M KCl). After renewed centrifugation, the cells are washed in 250 ml of cold buffer A with 50 mM KCl, and the resulting pellets are frozen at −20° C. for 60 min. The pellets are thawed on ice in 30 to 60 min and taken up in buffer B (10 mM Tris acetate, pH 8.0, 20 mM magnesium acetate, 1 mM DTT, 50 mM KCl) up to a total volume of 99 ml. 1.5 ml portions of lysostaphin (0.8 mg/ml) in buffer B are introduced into 3 precooled centrifuge cups and each is mixed with 33 ml of the cell suspension. The samples are incubated at 37° C., shaking occasionally, for 45 to 60 min, before 150 μl of a 0.5 M DTT solution are added. The lysed cells are centrifuged at 30 000×g and 4° C. for 30 min. The cell pellet is taken up in buffer B and then centrifuged again under the same conditions, and the collected supernatants are combined. The supernatants are centrifuged again under the same conditions, and 0.25 volumes of buffer C (670 mM Tris acetate, pH 8.0, 20 mM magnesium acetate, 7 mM Na3 phosphoenolpyruvate, 7 mM DTT, 5.5 mM ATP, 70 μM amino acids (complete from Promega), 75 μg of pyruvate kinase (Sigma, Germany))/ml are added to the upper ⅔ of the supernatant. The samples are incubated at 37° C. for 30 min. The supernatants are dialysed against 21 of dialysis buffer (10 mM Tris acetate, pH 8.0, 14 mM magnesium acetate, 1 mM DTT, 60 mM potassium acetate) in a dialysis tube with a 3500 Da cut-off with one buffer change at 4° C. overnight. The dialysate is concentrated to a protein concentration of about 10 mg/ml by covering the dialysis tube with cold PEG 8000 powder (Sigma, Germany) at 4° C. The S30 extracts can be stored in aliquots at −70° C.
Determination of the IC50 in the S. aureus In Vitro Transcription-Translation Assay
Inhibition of protein biosynthesis of the compounds can be shown in an in vitro transcription-translation assay. The assay is based on the cell-free transcription and translation of firefly luciferase using the reporter plasmid p1a as template and cell-free S30 extracts obtained from S. aureus. The activity of the resulting luciferase can be detected by luminescence measurement.
The amount of S30 extract or plasmid p1a respectively to be employed must be tested anew for each preparation in order to ensure an optimal concentration in the assay. 3 μl of the substance to be tested, dissolved in 5% DMSO, are introduced into an MTP. Then 10 μl of a suitably concentrated plasmid solution p1a are added. […]

S. aureus 133 [3] = assay: Systemic infection with S. aureus 133 (mouse sepsis model); format: in vivo; conditions: female CFW1 mice, i.p. infection, i.v. therapy 30 minutes after the infection, survival over 6 days
[4] = L4001, read-out: MIC E. faecium L4001
[5] = Staphylococcus aureus, 133, read-out: MIC S. aureus 133
[6] = L4001, no visible bacterial growth, 18-24 h, 37° C., 5% CO2, read-out: MIC E. faecium L4001
[7] = Staphylococcus aureus, 133, no visible bacterial growth, 18-24 h, 37° C., read-out: MIC S. aureus 133

For NCCC[C@H](N)CNC(=O)[C@H](CCCN)NC(=O)[C@@H]1Cc2cc(ccc2O)-c2ccc(O)c(c2)C[C@H](N)C(=O)N[C@@H](CCCN)C(=O)N1 [Example 16, (8S,11S,14S)-14-Amino-N-[(1S)-4-amino-1-({[(2S)-2,5-diaminopentyl]amino}carbonyl)butyl]-11-(3-aminopropyl)-5,17-dihydroxy-10,13-dioxo-9,12-diazatricyclo[14.3.1.1^2,6]henicosa-1(20),2(21),3,5,16,18-hexaene-8-carboxamide tetrahydrochloride], the MIC (E. faecium L4001; [4]) was > 32 mg/L, the MIC (S. aureus 133 [1]; [5]) was 2 mg/L and the MIC (S. aureus T17) was 2 mg/L. It also gave an IC50 [2] of 0.1 µM.

NCCC[C@H](NC(=O)[C@@H]1Cc2cc(ccc2O)-c2ccc(O)c(c2)C[C@H](N)C(=O)N[C@@H](CCCN)C(=O)N1)C(=O)NCCC[C@H](N)CC(=O)NCCN [Example 10, (8S,11S,14S)-14-Amino-N-{(1S)-4-amino-1-[({(4R)-4-amino-6-[(2-aminoethyl)amino]-6-oxohexyl}amino)carbonyl]butyl}-1-(3-aminopropyl)-5,17-dihydroxy-10,13-dioxo-9,12-diazatricyclo[14.3.1.1^2,6]henicosa-1(20),2(21),3,5,16,18-hexaene-8-carboxamide pentahydrochloride] gave an MIC (E. faecium L4001; [6]) of 8 mg/L, an MIC (S. aureus 133 [1]; [7]) of 0.5 mg/L and an MIC (S. aureus T17) of 0.5 mg/L. It also gave an IC50 [2] of 0.07 µM.

NCCC[C@@H]1NC(=O)[C@@H](N)Cc2cc(ccc2O)-c2ccc(O)c(c2)C[C@@H](C(=O)N[C@@H](C[C@@H](O)CN)C(=O)NCCN)NC1=O [Example 6, (8S,11S,14S)-14-Amino-N-((1S,3R)-4-amino-1-{[(2-aminoethyl)amino]carbonyl}-3-hydroxybutyl)-11-[3-aminopropyl]-5,17-dihydroxy-10,13-dioxo-9,12-diazatricyclo[14.3.1.1^2,6]henicosa-1(20),2(21),3,5,16,18-hexaene-8-carboxamide tetrahydrochloride] was tested, and the MIC (E. faecium L4001; [4]) was 8 mg/L, the MIC (S. aureus 133 [1]; [5]) was 1 mg/L and the MIC (S. aureus T17) was 2 mg/L. The IC50 [2] was 0.1 µM.

NCCC[C@H](NC(=O)[C@@H]1Cc2cc(ccc2O)-c2ccc(O)c(c2)C[C@H](N)C(=O)N[C@@H](CCCN)C(=O)N1)C(=O)N[C@@H](CCN)C(=O)NCCN [Example 13, (8S,11S,14S)-14-Amino-N-((1S)-4-amino-1-{[((1S)-3-amino-1-{[(2-aminoethyl)amino]carbonyl}propyl)amino]carbonyl}butyl)-11-(3-aminopropyl)-5,17-dihydroxy-10,13-dioxo-9,12-diazatricyclo[14.3.1.1^2,6]henicosa-1(20),2(21),3,5,16,18-hexaene-8-carboxamide pentahydrochloride] showed an MIC (E. faecium L4001; [4]) of 16 mg/L, an MIC (S. aureus 133 [1]; [5]) of 0.5 mg/L and an MIC (S. aureus T17) of 0.5 mg/L. The IC50 [2] was 0.06 µM.

N=C(N)NCCC[C@H](NC(=O)[C@@H]1Cc2cc(ccc2O)-c2ccc(O)c(c2)C[C@H](N)C(=O)N[C@@H](CCCN)C(=O)N1)C(=O)NCCN [Example 14, (8S,11S,14S)-14-Amino-N-((1S)-1-{[(2-aminoethyl)amino]carbonyl}-4-{[amino(imino)methyl]amino}butyl)-11-(3-aminopropyl)-5,17-dihydroxy-10,13-dioxo-9,12-diazatricyclo[14.3.1.1^2,6]henicosa-1(20),2(21),3,5,16,18-hexaene-8-carboxamide pentahydrochloride] showed an MIC (E. faecium L4001; [4]) of 4 mg/L, an MIC (S. aureus 133 [1]; [5]) of 1 mg/L and an MIC (S. aureus T17) of 2 mg/L. For the same compound, the IC50 [2] was 0.07 µM.

For NCCC[C@@H]1NC(=O)[C@@H](N)Cc2cc(ccc2O)-c2ccc(O)c(c2)C[C@@H](C(=O)N[C@H](CO)CNC(=O)[C@@H](N)CCCN)NC1=O [Example 23], the MIC (E. faecium L4001; [6]) was 4 mg/L (≈ 6.22 µM), the MIC (S. aureus 133 [1]; [7]) was 0.5 mg/L (≈ 0.778 µM) and the MIC (S. aureus T17) was 1 mg/L (≈ 1.56 µM). The IC50 [2] was 0.32 µM.

With NCCC[C@H](NC(=O)[C@@H]1Cc2cc(ccc2O)-c2ccc(O)c(c2)C[C@H](N)C(=O)N[C@@H](CCCN)C(=O)N1)C(=O)NCCN [Example 2, (8S,11S,14S)-14-Amino-N-((1S)-4-amino-1-{[(2-aminoethyl)amino]carbonyl}butyl)-11-(3-aminopropyl)-5,17-dihydroxy-10,13-dioxo-9,12-diazatricyclo[14.3.1.1^2,6]henicosa-1(20),2(21),3,5,16,18-hexaene-8-carboxamide tetra(hydrotrifluoroacetate)] the “therapeutic effect ED100” value (S. aureus 133 [3]) was 1.25 mg/kg.
